Results taken from US7429578B2, “Tricyclic inhibitors of poly(ADP-ribose) polymerases” (Agouron Pharmaceuticals, Inc., priority 1999, dated 2008).
Values joined by “and” are separate entries in the source; they are usually repeats but may differ in a detail not shown here. Equal entries are not always repeated.

Columns and labels:
purified PARP protein = purified PARP protein (Homo sapiens, UniProt P09874); test: PARP enzyme inhibition assay; format: biochemical; conditions: [32P]NAD+ incorporation, 500 μM NAD+, 25° C.; two values in a cell = tested twice; read-out: Inhibition Constant Ki
purified PARP protein, sequence (P09874 whole entry): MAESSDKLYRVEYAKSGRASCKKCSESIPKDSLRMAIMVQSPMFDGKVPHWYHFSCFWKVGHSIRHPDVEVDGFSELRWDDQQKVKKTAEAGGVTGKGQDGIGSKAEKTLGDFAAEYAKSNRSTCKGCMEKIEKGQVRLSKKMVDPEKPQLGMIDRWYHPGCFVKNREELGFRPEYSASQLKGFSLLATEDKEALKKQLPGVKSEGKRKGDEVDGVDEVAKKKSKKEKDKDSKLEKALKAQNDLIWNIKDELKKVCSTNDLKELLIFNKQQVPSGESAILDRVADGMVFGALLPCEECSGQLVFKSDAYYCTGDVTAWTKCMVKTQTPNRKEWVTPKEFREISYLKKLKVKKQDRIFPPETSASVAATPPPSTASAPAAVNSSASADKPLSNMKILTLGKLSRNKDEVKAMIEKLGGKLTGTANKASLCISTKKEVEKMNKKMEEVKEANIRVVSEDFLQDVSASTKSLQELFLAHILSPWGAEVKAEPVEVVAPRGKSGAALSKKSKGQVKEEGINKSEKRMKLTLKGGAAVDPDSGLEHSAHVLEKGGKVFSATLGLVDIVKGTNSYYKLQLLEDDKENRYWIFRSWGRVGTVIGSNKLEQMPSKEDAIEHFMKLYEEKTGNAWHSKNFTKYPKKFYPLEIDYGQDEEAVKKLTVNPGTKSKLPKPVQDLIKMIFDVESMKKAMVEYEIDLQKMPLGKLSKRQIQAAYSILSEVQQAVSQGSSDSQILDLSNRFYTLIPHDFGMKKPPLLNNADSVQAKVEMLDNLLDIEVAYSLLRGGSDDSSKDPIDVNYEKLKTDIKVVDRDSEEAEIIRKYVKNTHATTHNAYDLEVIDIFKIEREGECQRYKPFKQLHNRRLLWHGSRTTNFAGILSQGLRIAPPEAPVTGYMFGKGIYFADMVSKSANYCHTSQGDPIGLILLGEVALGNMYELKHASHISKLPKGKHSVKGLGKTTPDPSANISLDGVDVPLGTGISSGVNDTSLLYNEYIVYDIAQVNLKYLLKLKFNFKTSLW

SMILES | Ki (purified PARP protein) | melting point
Cn1cc2c3c(cccc31)C(=O)NCC2 [Compound 19, 1-N-Methyl-3,4,5,6-tetrahydro-1H-azepino[5,4,3-cd]indol-6-one] | 62 nM | 194 to 195 °C
O=C1NCCc2c(-c3ccc(C(F)(F)F)cc3)[nH]c3cccc1c23 [Compound 31, 2-(4-Trifluoromethyl-phenyl)-1,3,4,5-tetrahydro-azepino[5,4,3-cd]indol-6-one] | 5 nM | 208 to 209 °C
O=C1NCCc2c(-c3cc4ccccc4o3)[nH]c3cccc1c23 [Compound 32, 2-Benzofuran-2-yl-1,3,4,5-tetrahydro-azepino[5,4,3-cd]indol-6-one] | 11.3 nM | 207 °C (dec.)
O=C1NCCc2c(-c3cc(C(F)(F)F)cc(C(F)(F)F)c3)[nH]c3cccc1c23 [Compound 33, 2-(3,5-bis-Trifluoromethyl-phenyl)-1,3,4,5-tetrahydro-azepino[5,4,3-cd]indol-6-one] | 230 nM | 230 °C (dec.)
O=C1NCCc2c(-c3ccc(Br)cc3)[nH]c3cccc1c23 [Compound 34, 2-(4-Bromophenyl)-1,3,4,5-tetrahydro-azepino[5,4,3-cd]indol-6-one] | 3.9 nM | 160 °C (dec.)
CC(C)(C)c1ccc(-c2[nH]c3cccc4c3c2CCNC4=O)cc1 [Compound 36, 2-(4-tert-Butyl-phenyl)-1,3,4,5-tetrahydro-azepino[5,4,3-cd]indol-6-one] | 29 nM | 243 to 244 °C
O=C1NCCc2c(CCc3ccccc3)[nH]c3cccc1c23 [Compound 37, 2-Phenethyl-1,3,4,5-tetrahydro-azepino[5,4,3-cd]indol-6-one] | 24 nM | 207 to 208 °C
O=C1NCCc2c(-c3ccccc3Cl)[nH]c3cccc1c23 [Compound 38, 2-(2-Chlorophenyl)-1,3,4,5-tetrahydro-azepino[5,4,3-cd]indol-6-one] | 8.4 nM | 275 °C (dec.)
O=C1NCCc2c(-c3ccc(F)cc3F)[nH]c3cccc1c23 [Compound 39, 2-(2,4-Difluoro-phenyl)-1,3,4,5-tetrahydro-azepino[5,4,3-cd]indol-6-one] | 4.8 nM | 196 to 197 °C
O=C1NCCc2c(-c3cccc(Cl)c3)[nH]c3cccc1c23 [Compound 40, 2-(3-Chlorophenyl)-1,3,4,5-tetrahydro-azepino[5,4,3-cd]indol-6-one] | 5.2 nM | 147 to 149 °C
COC(=O)c1[nH]c2cccc3c2c1CCNC3=O [Compound 42, 6-Oxo-3,4,5,6-tetrahydro-1H-azepino[5,4,3-cd]indole-2-carboxylic acid methyl ester] | 5.1 nM | 266 to 267 °C
CC(=O)Nc1cccc(-c2[nH]c3cccc4c3c2CCNC4=O)c1 [Compound TT, N-[3-(6-Oxo-3,4,5,6-tetrahydro-1H-azepino[5,4,3-cd]indol-2-yl)-phenyl]-acetamide] | 12.2 nM and 4.2 nM | 300.5 to 302 °C
CCN(CC)CCc1ccc(-c2[nH]c3cccc4c3c2CCNC4=O)cc1 [Compound YY, 2-[4-(2-Diethylamino-ethyl)-phenyl]-3,4,5,6-tetrahydro-azepino[5,4,3-cd]indol-6-one] | 15.1 nM | 224 to 224.5 °C (dec.)
O=C1NCCc2c(-c3ccccc3O)[nH]c3cccc1c23 [DDD, 2-(2-Hydroxy-phenyl)-1,3,4,5-tetrahydro-azepino[5,4,3-cd]indol-6-one] | 23 nM | 305 °C (dec.)
N#Cc1[nH]c2cccc3c2c1CCNC3=O [EEE, 6-Oxo-3,4,5,6-tetrahydro-1H-azepino[5,4,3-cd]indole-2-carbonitrile] | 10.6 nM | 315 °C (dec.)
CSc1ccc(-c2[nH]c3cccc4c3c2CCNC4=O)cc1 [EEEE, 2-(4-Methylsulfanyl-phenyl)-1,3,4,5-tetrahydro-azepino[5,4,3-cd]indol-6-one] | 2.9 nM | 250 to 251 °C
CCCCCCCCOC(=O)c1[nH]c2cccc3c2c1CCNC3=O [FFF, 6-Oxo-3,4,5,6-tetrahydro-1H-azepino[5,4,3-cd]indole-2-carboxylic acid octyl ester] | 125 nM | 170 to 171 °C
C[S+]([O-])c1ccc(-c2[nH]c3cccc4c3c2CCNC4=O)cc1 (stereo not drawn) [FFFF, 2-(4-Methanesulfinyl-phenyl)-1,3,4,5-tetrahydro-azepino[5,4,3-cd]indol-6-one] | 4.7 nM | 316 to 317 °C (dec.)
CS(=O)(=O)c1ccc(-c2[nH]c3cccc4c3c2CCNC4=O)cc1 [GGGG, 2-(4-Methanesulfonyl-phenyl)-1,3,4,5-tetrahydro-azepino[5,4,3-cd]indol-6-one] | 6.2 nM | 308 to 309 °C (dec.)
COc1ccccc1-c1[nH]c2cccc3c2c1CCNC3=O [III, 2-(2-Methoxy-phenyl)-1,3,4,5-tetrahydro-azepino[5,4,3-cd]indol-6-one] | 40 nM | 254 to 255 °C
O=C1NCCc2c(-c3ccncc3)[nH]c3cccc1c23 [JJJ, 2-Pyridin-4-yl-1,3,4,5-tetrahydro-azepino[5,4,3-cd]indol-6-one] | 5.3 nM | 250 °C (dec.)
CSc1ccccc1-c1[nH]c2cccc3c2c1CCNC3=O [LLL, 2-(2-Methylsulfanyl-phenyl)-1,3,4,5-tetrahydro-azepino[5,4,3-cd]indol-6-one] | 32 nM | 271 to 272 °C
O=C(Nc1cccc2ccccc12)c1[nH]c2cccc3c2c1CCNC3=O [NNNN, 6-Oxo-1,3,4,5-tetrahydro-1H-azepino[5,4,3-cd]indole-2-carboxylic Acid naphthalen-1-ylamide] | 10 nM | 330 to 332 °C (dec.)
CNC(=O)c1[nH]c2cccc3c2c1CCNC3=O [OOO, 6-Oxo-3,4,5,6-tetrahydro-1H-azepino[5,4,3-cd]indole-2-carboxylic acid methylamide] | 14 nM | 321 to 322 °C (dec.)
C#CCNC(=O)c1[nH]c2cccc3c2c1CCNC3=O [OOOO, 6-Oxo-1,3,4,5-tetrahydro-1H-azepino[5,4,3-cd]indole-2-carboxylic acid prop-2-ynylamide] | 13 nM | 191 to 192 °C
CC(C)NC(=O)c1[nH]c2cccc3c2c1CCNC3=O [PPPP, 6-Oxo-1,3,4,5-tetrahydro-1H-azepino[5,4,3-cd]indole-2-carboxylic acid isopropylamide] | 32 nM | 261 to 262 °C (dec.)
CC1=NNC(=O)c2cccc3[nH]cc1c23 [QQ, 1,5-Dihydro-3-methyl-[1,2]diazepino[4,5,6-cd]-indol-6-one] | 5.5 nM and 4.5 nM | 335 to 336 °C
O=C1NCCc2c(-c3cccc(-c4ccccc4)c3)[nH]c3cccc1c23 [RRR, 2-Biphenyl-3-yl-1,3,4,5-tetrahydro-azepino[5,4,3-cd]indol-6-one] | 23 nM | 160 to 163 °C
COc1ccc(Cl)cc1-c1[nH]c2cccc3c2c1CCNC3=O [SSS, 2-(5-Chloro-2-methoxy-phenyl)-3,4,5,6-tetrahydro-azepino[5,4,3-cd]indol-6-one] | 66 nM | 160 to 162 °C
O=C1NCCc2c(-c3cccc(CN4CCCCC4)c3)[nH]c3cccc1c23 [SS] | 14 nM | 235 to 237 °C
